# Columns and labels:
# Type in all cases: cell-based
# intestinal cell line = assay: Intracellular calcium amount after NSP4 and PlnA administration in intestinal cell line; settings: co-administration of NSP4 and PlnA-containing agent
# Text: In an exemplary embodiment of the pharmaceutical agent developed with the present invention, a pharmaceutical agent containing the Lactobacillus plantarum bacteriocin Plantaricin A (PlnA) is used to reduce the intracellular calcium content of the rotavirus NSP4 protein in the intestinal cell line. Thus, the amount of intracellular calcium increased by the NSP4 protein is reduced and, therefore, cell death and ER disruption caused by rotavirus through apoptosis is prevented by this strategy.
# IL-10 [1] = assay: IL-10 protein levels after NSP4 and PlnA administration; settings: NSP4 and PlnA-containing agent; for increase of IL-10 protein levels compared to the control group without any application: Graph 3
# IL-10 [2] = assay: IL-10 mRNA levels (gene expression) after NSP4 and PlnA administration; settings: NSP4 and PlnA containing agent together, Graph 5
substance,measurement,setting,value
Plantaricin A [PlnA-containing pharmaceutical agent],decrease of amount of intracellular calcium compared to the NSP4-treated first group,"intestinal cell line; 6th hour, Graph 1",3.75 fold
same,decrease of amount of intracellular calcium compared to the control group,"intestinal cell line; 6th hour, Graph 1",1.64 fold
same,amount of intracellular calcium compared to the control group,"intestinal cell line; 12 hours, Graph 2",the same amount of calcium was observed in the control group
same,decrease of amount of intracellular calcium compared to the first group administered NSP4,"intestinal cell line; 12 hours, Graph 2",2.67 times
same,increase of IL-10 protein levels compared to the control group without any application,IL-10 [1]; 3rd hour,2 fold
same,increase of IL-10 protein levels compared to the control group without any application,IL-10 [1]; 6th hour,1.43 fold
same,IL-10 protein levels compared to the control group,"IL-10 [1]; 12 hours, Graph 4",no significant difference
same,increase of IL-10 protein levels compared to the control group,"IL-10 [1]; 24 hours, Graph 4",1.13 fold
same,increase of IL-10 mRNA level compared to the control group,IL-10 [2]; 12th hour,0.68 fold
same,NSP4-induced suppression of IL-10 gene expression,IL-10 [2],this suppression was reduced
